Experimental data: article PMC6154605, “Multi-Anti-Parasitic Activity of Arylidene Ketones and Thiazolidene Hydrazines against Trypanosoma cruzi and Leishmania spp” (Molecules : A Journal of Synthetic Chemistry and Natural …, 2017)
Where two headings read alike, the source gives them in different places. Marks after values point to notes of the source that are not given here.

Assays:
[1] = biological target: T1, LmTIM (triosephosphate isomerase from Leishmania mexicana) (Leishmania mexicana, UniProt P48499); experiment: Inhibition of triosephosphate isomerase; type: biochemical; conditions: for inhibition at 100 µM: read-out: Percentage of Inhibition LmTIM
T1 construct: made in house; host or cells: Escherichia coli
T1 sequence (P48499 whole entry): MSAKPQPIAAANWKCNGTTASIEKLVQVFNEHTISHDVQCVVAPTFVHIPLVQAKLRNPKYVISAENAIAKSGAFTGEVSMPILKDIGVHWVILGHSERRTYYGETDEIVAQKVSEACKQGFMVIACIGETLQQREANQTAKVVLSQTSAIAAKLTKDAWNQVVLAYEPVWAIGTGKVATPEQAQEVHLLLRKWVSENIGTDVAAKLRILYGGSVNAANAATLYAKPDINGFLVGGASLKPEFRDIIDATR
Protocol: Compounds were dissolved in DMSO. […] The experiments were performed in triplicate.

cruzipain = cruzipain (Trypanosoma cruzi, UniProt P25779); conditions: at 100 µM; cited from earlier work
Sequence of cruzipain (P25779 123-467): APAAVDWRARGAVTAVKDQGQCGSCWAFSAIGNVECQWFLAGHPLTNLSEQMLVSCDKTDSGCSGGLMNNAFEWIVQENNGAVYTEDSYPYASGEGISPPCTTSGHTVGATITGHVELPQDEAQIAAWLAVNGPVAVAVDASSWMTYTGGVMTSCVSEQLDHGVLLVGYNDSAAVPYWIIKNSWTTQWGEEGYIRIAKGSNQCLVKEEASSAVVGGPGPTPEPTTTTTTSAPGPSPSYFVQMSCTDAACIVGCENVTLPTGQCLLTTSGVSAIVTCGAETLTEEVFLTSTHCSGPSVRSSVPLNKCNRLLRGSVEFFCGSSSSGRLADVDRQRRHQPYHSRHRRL

[2] = tested on: J774.1 murine macrophages; conditions: J774.1; read-out: IC50 ± SD Murine Macrophages; cited from earlier work
[3] = tested on: L. infantum promastigotes; experiment: Leishmanicidal activity on promastigotes, resazurin; type: cell-based, Leishmania infantum; conditions: for IC50: 48 h, read-out: IC50 ± SD Promastigotes L. infantum; for SI NCTC/ L. infantum: ratio IC50 mammalian cell / IC50 parasite (promastigotes)
From the text: (§1) We initially selected compounds previously reported to have anti-T. cruzi activity from our chemical library to evaluate their leishmanicidal activity. […]. To evaluate their activity in Leishmania spp., we performed a phenotypic screening using the promastigote form of L. infantum (MHOM/FR/91/LEM-2259) and L. braziliensis ([…]) (Table 1A for the thiazolidenehydrazine derivate and Table 1B for the arylideneketones family).
(§2) A culture of L. braziliensis (MHOM/BR/75/M2904) and L. infantum (MHOM/FR/91/LEM2259V) was obtained from the Facultad de Farmacia (Universidad Complutense, Madrid, Spain). The maintenance of the strains, the form of cultivation and the isolation of the shape of the promastigote were performed following the procedures described by Roldos et al.. The promastigotes were grown at 22 °C in Schneider’s Drosophila medium supplemented with 20% FBS. The assay was performed using a modification of a previous method. Promastigotes (2 × 10^6 parasites/well) were cultivated in 96-well plastic plates. Compounds were dissolved in dimethylsulfoxide (DMSO). Different dilutions of the compounds with a final volume up to 200 µL were added. After 48 h at 26 °C, 20 µL of a 2 mM resazurin solution were added, and the oxidation-reduction was quantified at 570 and 600 nm. The solution of resazurin was prepared at 2.5 mM in phosphate buffered solution (PBS), pH 7.4, and filtered through 0.22-µm membranes prior to use. All tests were carried out in triplicate. Resazurin sodium salt was obtained from Sigma-Aldrich (St. Louis, MO, USA) and stored at 4 °C protected from light. The efficacy of each compound was estimated by calculating the IC50 values. Each antiproliferative experiment was done in duplicate, and each concentration was tested in triplicate.

[4] = tested on: T. cruzi epimastigotes, Tulahuen 2 strain (genotype TcVI); conditions: cited from earlier work; for SI J774.1/ T. cruzi: ratio IC50 mammalian cell / IC50 parasite (epimastigotes); for IC50: read-out: IC50 ± SD Epimastigotes T. cruzi
NCTC929 fibroblasts = experiment: Nonspecific cytotoxicity on fibroblasts, resazurin; type: cell-based; conditions: NCTC-929, 24 h; read-out: IC50 ± SD Fibroblast NCTC929
Protocol: (§3) To establish the selectivity of the compounds against the parasites, nonspecific cytotoxicity against mammalian cells, using J774.1 murine macrophages and fibroblast NCTC929, was studied for the most relevant derivatives. The selectivity indexes were calculated as the ratio between cytotoxicity for mammalian cells and the anti-parasitic activity (Table 2).
NCTC-Clone 929 were grown in minimal essential medium (Sigma) supplemented with 10% heat-inactivated FBS, penicillin G (100 U/mL) and streptomycin (100 µg/mL). Cell cultures were maintained at 37 °C in a humidified 5% CO2 atmosphere. The procedure for cell viability measurement was evaluated with resazurin by a colorimetric method. The cells were plated in 96 microtiter plates at 3.00 × 10^4 cells/well in 100 µL growth medium. The cells were grown overnight at 37 °C, 5% CO2. Thereafter, the medium was removed, and the compounds were added to 200 µL of medium for 24 h. After incubation, 20 µL of a 2 mM resazurin solution were added to each well. The plates were incubated for 3 h to allow optimal oxidation-reduction. The reduction of resazurin was determined by dual wavelength absorbance measurement at 490 and 595 nm. The background was subtracted. Each concentration was assayed three times. Medium and drug controls were used in each test as blanks.

[5] = biological target: triosephosphate isomerase from T. cruzi (TcTIM) (Trypanosoma cruzi, UniProt P52270); parameters: made in house; host or cells: Escherichia coli; conditions: cited from earlier work; for Percentage of Inhibition TcTIM: at 100 µM
Sequence of triosephosphate isomerase from T. cruzi (TcTIM) (P52270 whole entry): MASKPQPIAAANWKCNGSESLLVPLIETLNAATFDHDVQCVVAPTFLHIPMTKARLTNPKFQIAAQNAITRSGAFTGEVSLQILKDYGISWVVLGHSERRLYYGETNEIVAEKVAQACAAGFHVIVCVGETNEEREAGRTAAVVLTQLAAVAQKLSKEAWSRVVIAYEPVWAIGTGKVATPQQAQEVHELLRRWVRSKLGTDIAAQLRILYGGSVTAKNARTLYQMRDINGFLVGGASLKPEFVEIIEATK

[6] = tested on: L. braziliensis promastigotes; experiment: Leishmanicidal activity on promastigotes, resazurin; type: cell-based, Leishmania braziliensis; conditions: for IC50: 48 h, read-out: IC50 ± SD Promastigotes L. braziliensis; for SI NCTC/ L. braziliensis: ratio IC50 mammalian cell / IC50 parasite (promastigotes)
From the text: as §1, §2

[7] = tested on: T. cruzi epimastigotes, Tulahuen 2 strain (genotype TcVI); experiment: In vitro anti-T. cruzi activity, growth inhibition of epimastigotes; type: cell-based, Trypanosoma cruzi; conditions: for IC50: Trypanosoma cruzi, TULAHUEN; for SI J774.1/ T. cruzi: ratio IC50 mammalian cell / IC50 parasite (epimastigotes); for Trypanocidal activity on T. cruzi in words: molecular stripping, epimastigotes
Protocol: For the in vitro anti-T. cruzi activity, we used epimastigotes of the Tulahuen 2 strain (genotype TcVI) grown in an axenic milieu (BHI-Tryptose). Cells from a 5–7-day-old culture were inoculated in fresh culture milieu to give an initial concentration of 1.00 × 10^6 cells/mL. The absorbance at 600 nm of the cells in culture was measured every day. At Day 5, the milieu was inoculated with different quantities of the compounds from a stock solution in DMSO (DMSO concentration in the culture milieu never exceeded 0.4%). The control was made in the presence of 0.4% DMSO and in the absence of compounds. Each concentration of compound was evaluated in duplicate. At Day 5, the absorbance of the culture was measured and related to the control. […] Each antiproliferative experiment was done in duplicate, and each concentration was tested in triplicate.

[8] = tested on: J774.1 murine macrophages; experiment: Nonspecific cytotoxicity on macrophages, MTT; type: cell-based; conditions: J774.1, 48 h, read-out: IC50 ± SD Murine Macrophages
Protocol: as §3
J774.1 murine macrophage cells (ATCC, USA) were grown in DMEM culture milieu containing 4 mM L-glutamine and supplemented with 10% FCS. The cells were seeded in a 96-well plate (5.00 × 10^4 cells in 200 µL culture medium) and incubated at 37 °C in a 5% CO2 atmosphere for 48 h, to allow cell adhesion prior to drug testing. Afterwards, cells were exposed for 48 h to the compounds (25–400 μM) or the vehicle for control (0.4% DMSO), and additional controls (cells in medium) were used in each test. Cell viability was then assessed by measuring the mitochondria-dependent reduction of MTT (3-(4,5-dimethylthiazol-2-yl)-2,5-diphenyltetrazolium bromide) to formazan. For this purpose, MTT in sterile PBS (0.2% glucose), pH 7.4, was added to the macrophages to achieve a final concentration of 0.1 mg/mL, and the cells were incubated at 37 °C for 3 h. After removing the medium, formazan crystals were dissolved in 180 μL of DMSO and 20 μL of MTT buffer (0.1 M glycine, 0.1 M NaCl, 0.5 mM EDTA, pH 10.5), and the absorbance at 560 nm was measured. The IC50 was defined as the drug concentration at which 50% of the cells were viable, relative to the control (no drug added), and was determined by analysis using OriginLab8.5® sigmoidal regression (% of viable cells vs. the logarithm of the compound concentration). Tests were performed in triplicate.

zebrafish embryos = experiment: Zebrafish embryo toxicity test (LD50)
Protocol: […] Only embryos that were clearly undamaged after 60 min of observation were kept and subsequently used. Dechorionated embryos were further manipulated using flame-rounded tip glass Pasteur pipettes. […] In all cases, the embryos were incubated in system water with 1% DMSO (negative control) and the compound at different doses between 8 and 96 hpf. The treatment solution was changed daily. […] At selected time points, namely 24, 48, 72 and 96 hpf, embryotoxicity (= mortality) and morphological characteristics of the embryos were evaluated using a Nikon SMZ800 stereomicroscope. The embryos were evaluated for the presence and morphological development (as appropriate) of somites, tail detachment, eyes, heart beat and blood circulation. All individuals were evaluated at all time points.

[9] = Figure 4, molecular stripping of HIT1, read-out: Effect of structural change on trypanocidal activity (emoticon code)
[10] = Tulahuen 2 strain, read-out: IC50 ± SD Epimastigotes T. cruzi

| Compound | IC50 ([3]; Leishmania infantum) [µM] | SI NCTC/ L. infantum [3] | IC50 (NCTC929 fibroblasts) [µM] | IC50 ([6]; Leishmania braziliensis) [µM] | SI NCTC/ L. braziliensis [6] | melting point | IC50 [7, 9] [µM] | IC50 [7, 10] [µM] | SI J774.1/ T. cruzi [7] | IC50 ([8]; Mus musculus) [µM] | other results |
| --- | --- | --- | --- | --- | --- | --- | --- | --- | --- | --- | --- |
| CC(/C=C/C(=O)/C=C/C(C)=C/c1ccco1)=C\c1ccco1 [EA155] | 6 ± 1 | 91 | 543 ± 15 | 16 ± 2 | 34 |  |  |  |  |  | IC50 ([1]; read-out: IC50 ± SD LmTIM): < 25 µM; inhibition at 100 µM [1]: 100%; Percentage of Inhibition Cruzipain (cruzipain): 0/- ^d; IC50 [2]: 33 ± 8 µM; SI J774.1/ T. cruzi [4]: 4 ^c; IC50 [4]: 8.2 ± 2 µM; Percentage of Inhibition TcTIM [5]: 100; IC50 ([5]; read-out: IC50 ± SD TcTIM): 3.3 µM |
| Cc1ccc(/C=C/C=C/C(/C=C/C=C/c2ccc(C)o2)=NN2CCN(CC=Cc3ccccc3)CC2)o1 [GAT1113, N-((1E,3E,6E,8E)-1,9-bis(5-methylfuran-2-yl)nona-1,3,6,8-tetraen-5-ylidene)-4-cinnamylpiperazin-1-amine] | 14 ± 2 | 12 | 165 ± 5 | 16 ± 4 | 10 | 148 to 150 °C | < 5 | 1.6 ± 0.3 | 28 | 45 ± 5 |  |
| C=CCn1c(-c2ccc(Cl)cc2)cs\c1=N/N=C/C(C)=C/c1ccco1 [GAT0513] | 58 ± 12 | 25 | 1440 ± 30 | 33 ± 11 | 44 | 228 °C (dec.) |  | 0.09 ± 0.02 | 611 | 55 ± 5 | Trypanocidal activity on T. cruzi in words [7]: active against T. cruzi |
| C=CCn1c(-c2ccc(Cl)cc2)cs\c1=N/N=C/C=C/c1ccc(C)o1 [GAT0113A] | 8 ± 2 | 40 | 319 ± 16 | 10 ± 1 | 32 | 220 °C (dec.) |  | 3 ± 0.5 | 22 | 66 ± 7 | Trypanocidal activity on T. cruzi in words [7]: equipotent to the parent compound |
| CCCCCCCCCCCCCCCCOP(=O)([O-])OCC[N+](C)(C)C [Miltefosine, reference compound] | 0.9 ± 0.2 | 56 |  | 0.9 ± 0.2 |  |  |  | 8 ± 1 | 6 | 50 ± 7 |  |
| Glucantime [reference compound] |  | 0.5 |  |  | 1 |  |  |  |  |  | IC50 [3]: 26 ± 9 µM; IC50 [8]: 15 ± 1 µM; IC50 [6]: 18 ± 2 µM |
| C(=C\c1ccco1)/C=N/N1CCN(Cc2ccccc2)CC1 [GAT1912, (E)-4-benzyl-N-((E)-3-(furan-2-yl)allylidene)piperazin-1-amine] | > 100 |  |  | > 100 |  | 145 to 147 °C | > 25 | > 25 |  |  |  |
| O=C(/C=C/C=C/c1ccco1)/C=C/C=C/c1ccco1 [EA128] | 31 ± 9 | 16 | 494 ± 25 | 36 ± 9 | 14 |  |  |  |  |  | inhibition at 100 µM [1]: 0%; Percentage of Inhibition Cruzipain (cruzipain): 48/- ^d; IC50 [2]: 60 ± 3 µM; SI J774.1/ T. cruzi [4]: 12 ^c; IC50 [4]: 5 ± 0.7 µM; Percentage of Inhibition TcTIM [5]: 100 |
| C=CCn1c(C(=O)CN2CCN(CC=Cc3ccccc3)CC2)cs/c1=N/N=C\C=C\c1ccco1 [GATk6, 1-((Z)-3-allyl-2-((E)-((E)-3-(furan-2-yl)allylidene)hydrazono)-2,3-dihydrothiazol-4-yl)-2-(4-cinnamylpiperazin-1-yl)ethanone] | > 25 |  |  | > 25 |  | 140 to 142 °C | < 5 | 1.2 ± 0.3 |  |  |  |
| C(=Cc1ccccc1)CN1CCN(/N=C/C=C/c2ccco2)CC1 [GAT0913b, (E)-4-cinnamyl-N-((E)-3-(furan-2-yl)allylidene)piperazin-1-amine] | 21 ± 2 | 8 | 160 ± 7 | 18 ± 5 | 9 |  | > 25 | > 25 | 1 | 25 ± 3 | Trypanocidal activity on T. cruzi in words [7]: the activity was lost |
| O=C(Cn1ccnc1[N+](=O)[O-])NCc1ccccc1 [Benznidazole, reference compound] |  |  |  |  |  |  |  | 7 ± 1 | 57 | 400 ± 4 | LD50 without chorion (zebrafish embryos; dechorionated zebrafish embryos, 72 h incubation): > 1000 µM; LD50 with chorion (zebrafish embryos; zebrafish embryos with chorion): > 1000 µM |
